The nature of series [1]: Half life in Sprague-Dawley rat at 1 mg/kg, iv by LC-MS/MS method. In kind it is ADME, organism-based. The settings on record: in vivo.
Series [2] can be described thus: AUC (0 to t) in Sprague-Dawley rat at 1 mg/kg, iv by LC-MS/MS method. In kind it is ADME, organism-based. To be noted: in vivo.
Series [3] is described as follows: AUC (0 to infinity) in Sprague-Dawley rat at 1 mg/kg, iv by LC-MS/MS method. It counts as ADME, organism-based. Also on record: dose 1 mg/kg, route intravenous, time infinity. To be noted: in vivo.
Series [4] is described as follows: Clearance in Sprague-Dawley rat at 1 mg/kg, iv by LC-MS/MS method. It counts as ADME, organism-based. The settings on record: in vivo.
The nature of series [5]: Mean residence time (0 to infinity) in Sprague-Dawley rat at 1 mg/kg, iv by LC-MS/MS method. The settings on record: in vivo. In kind it is ADME, organism-based.
The nature of series [6]: Volume of distribution at steady state in Sprague-Dawley rat at 1 mg/kg, iv by LC-MS/MS method. In kind it is ADME, organism-based. To be noted: in vivo, read-out: Vdss.
Series [7] can be described thus: Half life in Sprague-Dawley rat at 2 mg/kg, po by LC-MS/MS method. In kind it is ADME, organism-based. To be noted: in vivo.
The nature of series [8]: AUC (0 to t) in Sprague-Dawley rat at 2 mg/kg, po by LC-MS/MS method. In kind it is ADME, organism-based. The settings on record: in vivo.
A short description of series [9]: AUC (0 to infinity) in Sprague-Dawley rat at 2 mg/kg, po by LC-MS/MS method. In kind it is ADME, organism-based. Details: dose 2 mg/kg, route oral, time infinity. The settings on record: in vivo.
Series [10] is described as follows: Cmax in Sprague-Dawley rat at 2 mg/kg, po by LC-MS/MS method. It counts as ADME, organism-based. Also on record: dose 2 mg/kg, route oral. The settings on record: in vivo.
Series [11] is described as follows: Mean residence time (0 to infinity) in Sprague-Dawley rat at 2 mg/kg, po by LC-MS/MS method. It counts as ADME, organism-based. To be noted: in vivo.
Series [12] is described as follows: Tmax in Sprague-Dawley rat at 2 mg/kg, po by LC-MS/MS method. It counts as ADME, organism-based. The settings on record: in vivo.
A short description of series [13]: Oral bioavailability in Sprague-Dawley rat at 2 mg/kg by LC-MS/MS method. The settings on record: in vivo. It counts as ADME, organism-based.
The test system of series [14] is Mus musculus. Briefly: Improvement in glucose tolerance in ICR mouse at 1 to 10 mg/kg, po administered as single dose 60 mins before glucose challenge and measured 30 to 60 mins post glucose challenge by OGTT method. In kind it is functional, organism-based.
For series [15], the species on record is Mus musculus. The settings on record: 1 to 10 mg/kg.
The species entered for series [16] is Mus musculus. Briefly: animal or person. The settings on record: ICR, ip, 24 h, read-out: INH.
Description: (§1) In-vivo inhibition of DPP4 in ICR mouse at 5 mg/kg, ip administered as single dose using Gly-Pro-AMC as substrate after 24 hrs post dose by continuous fluorometric assay
Series [17] is filed under the species Mus musculus. Briefly: animal or person. To be noted: po, 24 h, read-out: INH.
Series [18] is filed under the species Mus musculus. Briefly: animal or person. To be noted: po, 24 h, read-out: INH. The source holds these as a separate data set.
Series [19] is filed under the species Mus musculus. Briefly: animal or person. The settings on record: po, 24 h, read-out: INH. This is another data set of the same source.
Series [20] relates to Mus musculus. Briefly: In-vivo inhibition of DPP4 in B6.V-Lep'ob/Lep'ob (ob/ob) mouse at 3 mg/kg, po administered as single dose using Gly-Pro-AMC as substrate after 24 hrs post dose by continuous fluorometric assay. It counts as functional, organism-based.
The species named for series [21] is Mus musculus. The settings on record: ICR, 5 mg/kg.
Description: as §1

Active and inactive are the calls of the source. The rule behind the calls is not given here.

Consider `COc1cc2ccc3c(c2cc1OC)C[C@H](N)[C@@H](c1cc(F)c(F)cc1F)O3`, for which the half-life (in general, the time in which the quantity being followed falls by half) in [1] is 3.87 h; in [7], 3.05 h. Moreover, the AUCt in series [2] is 3380.54 µg/L/h; in series [8], 6052.89 µg/L/h. In addition, the AUC in series [3] was 3415 µg/L/h; in series [9], 6091.31 µg/L/h. For the same molecule, the clearance (in general, the rate of elimination divided by the concentration) in series [4] is 5 mL/min/kg. The MRT inf (usually a mean duration of stay, worked out from the concentration-time curve) in [5] is 4.87 h; in [11], 6.33 h. In addition, in [6], the Vd is 1.66 L/kg. For the same molecule, the peak level in series [10] (Cmax) was 502 ng/mL. Further, in series [12], the Tmax (usually the time from dosing to the highest level) turned out to be 4.67 h. Besides, the bioavailability (in general, the share of a dose that reaches the circulation, judged against a reference dose that is usually intravenous) in series [13] is 89.2%. Moreover, in series [14], the Activity result is “Dose-dependent effect”. Besides, the inhibition entry in series [15] was “Dose-dependent effect”. In addition, the inhibition in vivo at 5 mg/kg in series [16] is at most 80%. Moreover, the inhibition in vivo at 1 mg/kg in [17] was over 80%. For the same molecule, the inhibition in vivo at 3 mg/kg in series [18] was over 80%. In [19], the inhibition in vivo at 10 mg/kg is over 80%.

Regarding `CS(=O)(=O)n1cc2c(n1)CN([C@H]1CO[C@H](c3cc(F)ccc3F)[C@@H](N)C1)C2`, the inhibition entry in series [20] and in [21] was “Active” in each case.

As to `COc1cc2c3c(ccc2cc1S(C)(=O)=O)O[C@H](c1cc(F)c(F)cc1F)[C@@H](N)C3`, the half-life in [1] is 5.35 h; in series [7] it was 6.83 h. Besides, the values for the AUCt in [2] and in series [8] were 24208.7 µg/L/h and 26527.6 µg/L/h, respectively. Also, the AUC in series [3] is 25460.37 µg/L/h; in series [9], 26373.69 µg/L/h. Moreover, the clearance in [4] was 0.667 mL/min/kg. In addition, the mean residence time MRT inf in [5] turned out to be 7.56 h; in series [11], 9.05 h. Also, the Vd in [6] stood at 0.63 L/kg. In addition, the Cmax (as a rule, the peak of the concentration-time curve) in series [10] came out at 2320 ng/mL. Moreover, the Tmax in series [12] worked out at 4.67 h. Besides, in series [13], the bioavailability was 54.8%.

The record behind these values is ChEMBL document CHEMBL3861975, “Discovery and Rational Design of Natural-Product-Derived 2-Phenyl-3,4-dihydro-2H-benzo[f]chromen-3-amine Analogs as Novel and Potent Dipeptidyl Peptidase 4 (DPP-4) Inhibitors for the Treatment of Type 2 Diabetes” (J Med Chem, 2016).
